The values that follow come from patent US5817756A, “Pseudo- and non-peptide bradykinin receptor antagonists” (Scios Inc., priority 1995, dated 1998).

Starred links: 1 amine or outer side, 2 acyl side, 3 side chain; linkers in the order of their positions; H or OH if unused. Non-standard residues stand in square brackets, D forms with d. Residues, ends and D or L forms follow the SMILES beside them. X3 = O=C(Cn1c(=O)n(C2CCN([*:1])CC2)c2ccccc21)[*:2]; X7 = O=C(Cn1c(=O)c2ccccc2c2ccc(N[*:1])cc21)[*:2]; Butenoyl(2E,4-amino) = O=C(/C=C/CN[*:1])[*:2]; X4 = O=C(Cn1c2c(c3ccccc31)CN([*:1])CC2)[*:2]; Oic = O=C(O)[C@@H]1C[C@@H]2CCCC[C@@H]2N1; X1 = O=C(C/C=C/c1ccccc1CN[*:1])[*:2]; X6 = O=C(/C=C/c1ccccc1CCN[*:1])[*:2]; X2 = O=C(/C=C/c1ccccc1CN[*:1])[*:2]; dTic = O=C(O)[C@H]1Cc2ccccc2CN1; 12Ado = NCCCCCCCCCCCC(=O)O; Nphe = O=C(O)CNCc1ccccc1; Ahx = NCCCCCC(=O)O

The first assay concerns the target T1, human bradykinin B2 receptor (Homo sapiens, UniProt P30411).
T1 construct: The HindIII/XbaI fragment of one full-length clone, 126A, was inserted into pcDNAI neo vector; expressed in transfected cells
T1 sequence (P30411 1-391): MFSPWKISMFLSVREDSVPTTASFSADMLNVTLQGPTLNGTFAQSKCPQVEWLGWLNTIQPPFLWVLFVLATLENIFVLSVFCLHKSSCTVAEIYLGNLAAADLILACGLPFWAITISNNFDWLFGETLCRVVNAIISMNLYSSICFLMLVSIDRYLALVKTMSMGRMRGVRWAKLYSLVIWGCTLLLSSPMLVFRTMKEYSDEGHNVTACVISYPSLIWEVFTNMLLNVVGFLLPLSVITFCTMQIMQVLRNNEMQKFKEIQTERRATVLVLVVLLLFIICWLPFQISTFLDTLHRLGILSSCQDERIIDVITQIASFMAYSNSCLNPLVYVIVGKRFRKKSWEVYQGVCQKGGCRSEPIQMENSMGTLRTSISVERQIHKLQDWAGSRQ
As to the kind of experiment: Radioligand binding, H2O.2 cell membranes, 3H-bradykinin. The note with it: Table 1, read-out: Radioligand Binding Human 3HBK. How it is done: (§1) A human bradykinin B2 receptor was expressed in CHO/K cells. Briefly, approximately 2×10^6 plaques from a human uterus λgt10 cDNA library (Clontech Laboratories; Palo Alto, Calif.) were screened using a PCR fragment containing the coding region of the rat B2 receptor. This probe was generated by random-primed synthesis in the presence of α[^32 P]dATP. Duplicate filters were hybridized overnight at 42° C. in 1M NaCl, 50 mM Tris pH 7.5, 5× Denhardt's, 200 μg/ml salmon sperm DNA, 1% SDS, and 20% formamide. The filters were washed at 65° C. in 1× SSC and 1% SDS. Coincident positively hybridizing plaques were purified and rescreened with the same probe and stringency conditions. EcoRI fragments of positive clones were inserted into Bluescript/KS II+vector (Stratagene; La Jolla, Calif.) for sequence determination.
(§2) The nucleotide sequence of the cloned human B2 receptors was determined using double-stranded DNA and the dideoxy chain termination method. Commercially available T3 and T7 oligonucleotides (USB; Cleveland, Ohio) and synthetic 21-mer oligonucleotides (DNA/RNA Synthesizer; applied Biosystems Inc.; Palo Alto, Calif.) from both the known rat sequence and the determined human sequence were used to identify the nucleotide sequence from the 5' untranslated end to the BglII site in the 3' untranslated end of the clone.
(§3) CHO/K cells were plated in 2 ml of growth medium (Ham's F12 with 10% FBS) per 6 well plate and incubated at 37° C., 5% CO2 until they were 60% confluent. For each well, 4, 12, and 16 μg of DNA was diluted in 100 μl Opti-MEM I reduced serum medium (Gibco/BRL; Gaithersburg, Md.). 12 μl of TransfectASE reagent (Gibco/BRL) was diluted in a separate aliquot of 100 μl Opti-MEM I. The DNA and TransfecASE solutions were combined, mixed gently, and incubated at 25° C. for 15 minutes. This solution was then diluted to 1 ml with Opti-MEM I. Each well was washed twice with Opti-MEM I and 1 ml of the DNA/TransfectAse complex was added to each well. After a 5 hour incubation at 37° C. and 5% CO2, 1 ml of Ham's F12 with 20% FBS was added to each well and cells were incubated overnight. Media was replaced with growth medium and incubated for additional 24 hours.
(§4) This assay measures the ability of a bradykinin antagonist compound to compete for binding to the human B2 receptor with tritiated bradykinin or tritiated NPC17731, a bradykinin analog which is known to bind the B2 receptor and act as a bradykinin antagonist.
(§5) H2O.2 cells were grown to confluency in Ham's F12 media containing 10% FBS and 500 μg/ml Geneticin. Growth media was aspirated and the monolayer washed once with Dulbecco's PBS without Ca^++ and Mg^++. Cells were scraped in Dulbecco's PBS and centrifuged at 2,000×g for 10 minutes. Pellets were resuspended in 25 mM TES, 1 mM 1,10-phenanthroline pH 6.8 buffer and homogenized using a Ploytron at setting 5 for 10 seconds. An aliquot was taken for a protein determination using a BioRad protein assay kit. Membranes were centrifuged at 48,000×g for 10 minutes at 4° C. Pellets were resuspended in the TES buffer with 0.1% BSA and 0.014% bacitracin. 0.5 ml aliquots were frozen in liquid N2 and stored at -80° C. for up to 2 weeks.
(§6) Membranes from H2O.2 cells previously prepared were thawed at 37° C. and diluted in 25 mM TES, […] 1,10-phenanthroline pH 6.8 containing BSA and bactiracin. […] Non-specific binding was determined with 1 μM bradykinin. The tubes were incubated 90 minutes at 25° C. and the assay was terminated by rapid vacuum filtration onto Whatman GF/B filters presoaked with 0.2% PEI for 3 hours followed by 2×3 ml aliquots of ice-cold 50 mM Tris, pH 7.4. Radioactivity was counted with a Beckman scintillation counter.
Take `N=C(N)NCCC[C@@H](N)C(=O)N[C@@H](CCCNC(=N)N)C(=O)NCc1ccccc1/C=C/CC(=O)N[C@@H](CO)C(=O)N1Cc2ccccc2C[C@@H]1C(=O)N1[C@H](C(=O)N[C@@H](CCCNC(=N)N)C(=O)O)C[C@@H]2CCCC[C@@H]21` (H-[dR]R[X1]S[dTic][Oic]R-OH): the Ki is 51 nM.

Staying with this assay, now noted: Table 2, read-out: Radioligand Binding, Ki Human 3HBK.
As to `N=C(N)NCCC[C@@H](N)C(=O)N[C@@H](CCCNC(=N)N)C(=O)N1CCc2c(n(CCC(=O)N3CCC4(CC3)C(=O)N(CC(=O)N[C@@H](CCCNC(=N)N)C(=O)O)CN4c3ccccc3)c3ccccc23)C1` [Compound 3], the Ki was determined as 570 nM.
On the same count and under the same terms, as for `N=C(N)NCCC[C@@H](N)C(=O)N[C@@H](CCCNC(=N)N)C(=O)N1CCC2(CC1)C(=O)N(CC(=O)N1CCc3c(n(CC(=O)N[C@@H](CCCNC(=N)N)C(=O)O)c4ccccc34)C1)CN2C1CCCCC1` [Compound 4], the figure is 1400 nM.
As to `N=C(N)NCCC[C@@H](N)C(=O)N[C@@H](CCCNC(=N)N)C(=O)N1CCC2(CC1)C(=O)N(CC(=O)N1CCc3c(c4ccccc4n3CC(=O)N[C@@H](CCCNC(=N)N)C(=O)O)C1)CN2c1ccccc1` [Compound 7], the Ki was 325 nM.
The same measure, in the same setting: for `N=C(N)NCCC[C@@H](N)C(=O)N[C@@H](CCCNC(=N)N)C(=O)N1CCC2(CC1)C(=O)N(CC(=O)N1CCc3c(n(CCC(=O)N[C@@H](CCCNC(=N)N)C(=O)O)c4ccccc34)C1)CN2c1ccccc1` [Compound 8] the value was 223 nM; for `COc1ccc(N2CN(CC(=O)N3CCc4c(c5ccccc5n4CC(=O)N[C@@H](CCCNC(=N)N)C(=O)O)C3)C(=O)C23CCN(C(=O)[C@H](CCCNC(=N)N)NC(=O)[C@H](N)CCCNC(=N)N)CC3)cc1` [Compound 9], 129 nM; for `N=C(N)NCCC[C@@H](N)C(=O)N[C@@H](CCCNC(=N)N)C(=O)N1CCC2(CC1)C(=O)N(CC(=O)N1CCc3c(c4ccccc4n3CC(=O)N[C@@H](CCCNC(=N)N)C(=O)O)C1)CN2C1CCCCC1` [Compound 10], 229 nM.
The same measure, in the same setting: for `CCCN1CN(CC(=O)N2CCc3c(c4ccccc4n3CC(=O)N[C@@H](CCCNC(=N)N)C(=O)O)C2)C(=O)C12CCN(C(=O)[C@H](CCCNC(=N)N)NC(=O)[C@H](N)CCCNC(=N)N)CC2` [Compound 11] the value was 473 nM; for `N=C(N)NCCC[C@@H](N)C(=O)N[C@@H](CCCNC(=N)N)C(=O)N1CCC2(CC1)C(=O)N(CC(=O)N1CCc3c(c4ccccc4n3CC(=O)N[C@@H](CCCNC(=N)N)C(=O)O)C1)CN2CC1CCCCC1` [Compound 12], 168 nM; for `Cc1cc(C)nc(NCCC[C@@H](NC(=O)Cn2c3c(c4ccccc42)CCN(C(=O)CN2CN(c4ccccc4)C4(CCN(C(=O)[C@H](CCCNC(=N)N)NC(=O)[C@H](N)CCCNC(=N)N)CC4)C2=O)C3)C(N)=O)n1` [Compound 14], 78.4 nM.
On the same count and under the same terms, as for `Cc1cc(C)nc(NCCC[C@@H](NC(=O)Cn2c3c(c4ccccc42)CCN(C(=O)CN2CN(c4ccccc4)C4(CCN(C(=O)[C@@H](N)CCCNC(=N)N)CC4)C2=O)C3)C(N)=O)n1` [Compound 15], the figure is 285 nM; as for `Cc1cc(C)nc(NCCC[C@@H](NC(=O)Cn2c3c(c4ccccc42)CCN(C(=O)CN2CN(c4ccccc4)C4(CCN(C(=O)[C@H](N)CCCNC(=N)N)CC4)C2=O)C3)C(N)=O)n1` [Compound 16], 212 nM; as for `Cc1cc(C)nc(NCCC[C@@H](NC(=O)Cn2c3c(c4ccccc42)CN(C(=O)CN2CN(CC4CCCCC4)C4(CCN(C(=O)[C@H](CCCNC(=N)N)NC(=O)[C@H](N)CCCNC(=N)N)CC4)C2=O)CC3)C(N)=O)n1` [Compound 20], 52 nM.

A further assay addresses T1, human bradykinin B2 receptor. As to the kind of experiment: Radioligand binding, H2O.2 cell membranes, 3H-NPC17731.
Details: not given
The protocol: as §1, §2, §3, §4, §5, §6
`N=C(N)NCCC[C@@H](N)C(=O)N[C@@H](CCCNC(=N)N)C(=O)N1CCC2(CC1)C(=O)N(CC(=O)N[C@@H](CO)C(=O)N1Cc3ccccc3C[C@@H]1C(=O)N1[C@H](C(=O)N[C@@H](CCCNC(=N)N)C(=O)O)C[C@@H]3CCCC[C@@H]31)CN2c1ccccc1` [drawing 59] had a Ki of 7.8 nM.

Staying with this assay, now noted: Table 1; 3H-NPC17731; read-out: Radioligand Binding Human 3H17731.
Turning to `N=C(N)NCCC[C@@H](N)C(=O)N[C@@H](CCCNC(=N)N)C(=O)NCCCCCCCCCCCC(=O)N[C@@H](CO)C(=O)N1Cc2ccccc2C[C@@H]1C(=O)N1[C@H](C(=O)N[C@@H](CCCNC(=N)N)C(=O)O)C[C@@H]2CCCC[C@@H]21` (H-[dR]R[12Ado]S[dTic][Oic]R-OH), the Ki was found to be 31 nM.
For `N=C(N)NCCC[C@@H](N)C(=O)N[C@@H](CCCNC(=N)N)C(=O)NCCCCCC(=O)N[C@@H](CO)C(=O)N1Cc2ccccc2C[C@@H]1C(=O)N1[C@H](C(=O)N[C@@H](CCCNC(=N)N)C(=O)O)C[C@@H]2CCCC[C@@H]21` (H-[dR]R[Ahx]S[dTic][Oic]R-OH), the Ki came to 100 nM.
Still for that read-out and setting: as for `N=C(N)NCCC[C@@H](N)C(=O)N[C@@H](CCCNC(=N)N)C(=O)NC/C=C/C(=O)N[C@@H](CO)C(=O)N1Cc2ccccc2C[C@@H]1C(=O)N1[C@H](C(=O)N[C@@H](CCCNC(=N)N)C(=O)O)C[C@@H]2CCCC[C@@H]21` (H-[dR]R[Butenoyl(2E,4-amino)]S[dTic][Oic]R-OH), the figure is 229 nM; as for `N=C(N)NCCC[C@@H](N)C(=O)N[C@@H](CCCNC(=N)N)C(=O)NCc1ccccc1/C=C/CC(=O)N[C@@H](CO)C(=O)N1Cc2ccccc2C[C@@H]1C(=O)N1[C@H](C(=O)N[C@@H](CCCNC(=N)N)C(=O)O)C[C@@H]2CCCC[C@@H]21` (H-[dR]R[X1]S[dTic][Oic]R-OH), 17 nM; as for `N=C(N)NCCC[C@@H](N)C(=O)N[C@@H](CCCNC(=N)N)C(=O)NCc1ccccc1/C=C/C(=O)N(CC(=O)N[C@@H](CO)C(=O)N1Cc2ccccc2C[C@@H]1C(=O)N1[C@H](C(=O)N[C@@H](CCCNC(=N)N)C(=O)O)C[C@@H]2CCCC[C@@H]21)Cc1ccccc1` (H-[dR]R[X2][Nphe]S[dTic][Oic]R-OH), 28 nM.
Still for that read-out and setting: for `N=C(N)NCCC[C@@H](N)C(=O)N[C@@H](CCCNC(=N)N)C(=O)N1CCC(n2c(=O)n(CC(=O)N[C@@H](CO)C(=O)N3Cc4ccccc4C[C@@H]3C(=O)N3[C@H](C(=O)N[C@@H](CCCNC(=N)N)C(=O)O)C[C@@H]4CCCC[C@@H]43)c3ccccc32)CC1` (H-[dR]R[X3]S[dTic][Oic]R-OH) the value was 58 nM; for `N=C(N)NCCC[C@@H](N)C(=O)N[C@@H](CCCNC(=N)N)C(=O)N1CCc2c(c3ccccc3n2CC(=O)N[C@@H](CO)C(=O)N2Cc3ccccc3C[C@@H]2C(=O)N2[C@H](C(=O)N[C@@H](CCCNC(=N)N)C(=O)O)C[C@@H]3CCCC[C@@H]32)C1` (H-[dR]R[X4]S[dTic][Oic]R-OH), 78 nM; for `N=C(N)NCCC[C@@H](N)C(=O)N[C@@H](CCCNC(=N)N)C(=O)NCCc1ccccc1/C=C/C(=O)N[C@@H](CO)C(=O)N1Cc2ccccc2C[C@@H]1C(=O)N1[C@H](C(=O)N[C@@H](CCCNC(=N)N)C(=O)O)C[C@@H]2CCCC[C@@H]21` (H-[dR]R[X6]S[dTic][Oic]R-OH), 23 nM.
With `N=C(N)NCCC[C@@H](N)C(=O)N[C@@H](CCCNC(=N)N)C(=O)Nc1ccc2c3ccccc3c(=O)n(CC(=O)N[C@@H](CO)C(=O)N3Cc4ccccc4C[C@@H]3C(=O)N3[C@H](C(=O)N[C@@H](CCCNC(=N)N)C(=O)O)C[C@@H]4CCCC[C@@H]43)c2c1` (H-[dR]R[X7]S[dTic][Oic]R-OH), the Ki is 3.3 nM.
